Laboratory results from US5994336A, “Method of inhibiting proliferation of cells by administering an aminosterol compound” (priority 1995, dated 1999).
Entries after “also recorded” stand apart in the source; their conditions may differ.

Tests used:
vitelline capillaries = test: Chick embryo vitelline capillary regression assay; assay type: in vivo
Experimental: Using the chick embryo vitelline capillaries assay, compounds were tested for their ability to induce capillary regression. Each compound was applied in 0.1 ml of 15% Ficol 400 and PBS onto the embryo, and vascular regression was assessed after 60 minutes.
The 3-day chick embryo consists of an embryonic disc from which numerous vessels emerge and return, forming a "FIG. 8"-shaped structure--the embryo in the center with vascular loops extending outward over both poles. […] Following a lag period of around 15 minutes, the constriction of continuity between capillary and secondary vessels, generally on the "venous" side, was observed. Continued pulsatile blood flow progressed, resulting in a "swelling" of the blind tube, followed by a pinching off of the remaining connection and formation of an enclosed vascular sac resembling a "blood island." This process progressed until only the largest vessels remained intact.

[1] = test system: Xenopus tadpole, stage 59-60; test: Tadpole assay; assay type: in vivo, Xenopus laevis; conditions: 10 μg/ml; for pharmacological response in tadpole (words): stage 59-60
From the text: For example, substances that destroy all of the animal's epithelium, both adult and embryonic, could be regarded as toxic.
The volume of liquid is sufficient for the animal to swim freely and drink from the solution. […] If the volume of liquid is not sufficient to permit oral intake, the effects that are observed would result from absorption through the surface epithelium.
In another embodiment of this assay, a solution of a compound in water can be injected directly into the abdomen of the animal using standard techniques.
After an amount of time, typically about 60 minutes, the occlusion of blood flow through capillaries in the tadpole's tail are observed under an inverted microscope at a magnification of roughly 100×.
In the assay, each of the steroids was dissolved in 100 ml of distilled water at a concentration of 10 μg/ml. Stage 59-60 Xenopus tadpoles were introduced and evaluated by light microscopy and gross observation 1 hour later.

human melanoma = test: Effect on growth of human melanoma (method of Baker et al.); assay type: cell-based; conditions: FIG. 17A
rabbit NHE3 = biological target: T1, rabbit NHE3 (Oryctolagus cuniculus, UniProt P26432); assay type: cell-based; conditions: 10 μg/ml, acid preloaded; FIG. 10
T1 construct: BCECF internal pH recovery

[2] = test system: PHA-stimulated human lymphocytes; test: Inhibition of mitogen (PHA)-stimulated growth of human T-cells; assay type: cell-based
From the text: Results are tabulated below.

[3] = test system: Human colon carcinoma HT29; test: Growth inhibition in vitro (Table 7); assay type: cell-based; conditions: 10 μg/ml
From the text: (§1) As set forth in Table 7 below, all malignant tumors evaluated in tissue culture, endothelial cells and vascular smooth muscle cells were sensitive to inhibition. Thus, compound 1436 has application in the control of growth factor dependent proliferation of many types of tissue.

[4] = test system: Human colon carcinoma SW948; test: Growth inhibition in vitro (Table 7); assay type: cell-based; conditions: 10 μg/ml
From the text: as §1

[5] = test system: Human coronary artery smooth muscle cells; test: Growth inhibition in vitro (Table 7); assay type: cell-based; conditions: 10 μg/ml
From the text: as §1

Human melanoma WM 1617 = test: Growth inhibition in vitro (Table 7); assay type: cell-based; conditions: 10 μg/ml
From the text: as §1

[6] = test system: Human microvascular endothelial cells; test: Growth inhibition in vitro (Table 7); assay type: cell-based; conditions: 10 μg/ml
From the text: as §1

Lewis lung carcinoma = test: Growth inhibition in vitro (Table 7); assay type: cell-based; conditions: 10 μg/ml
From the text: as §1

Murine B16 melanoma = test: Growth inhibition in vitro (Table 7); assay type: cell-based; conditions: 10 μg/ml
From the text: as §1

Murine L1210 leukemia = test: Growth inhibition in vitro (Table 7); assay type: cell-based; conditions: 10 μg/ml
From the text: as §1

[7] = test system: bovine pulmonary endothelial cells; test: Growth inhibition in vitro (Table 7); assay type: cell-based; conditions: 10 μg/ml
From the text: as §1

[8] = test system: human umbilical venous endothelial cells; test: Growth inhibition in vitro (Table 7); assay type: cell-based; conditions: 10 μg/ml
From the text: as §1

[9] = test system: Human ovarian carcinoma SKOV3; test: Growth inhibition in vitro (Table 7); assay type: cell-based; conditions: 10 μg/ml
Experimental: as §1
Using the assay described above, the anticancer effects of compound 1437 against several cancer lines was assessed.

B16 melanoma [10] = test: Synergistic inhibition of tumor growth, B16 melanoma model; assay type: in vivo, mouse
Experimental: Based on the idea that tumor growth involves both the clonal expansion of a malignant cell along with the development of a supporting vascular supply, a combination of compound 1436 with squalamine was tested to determine whether it would achieve a synergistic effect on solid tumor growth. This concept was evaluated in the B16 melanoma model.
Animals were implanted with B16 melanoma followed by treatment with compound 1436 or 1256 administered in a combined schedule or separately. […] Thus, a combination of these two compounds achieves a therapeutic benefit in tumors dependent on neovascularization that may prevent metastatic spread.

[11] = Effect on fasting blood glucose in mice; assay type: in vivo, mouse; conditions: i.v.
Experimental: To study the effect of steroid administrator or the NHE responsible for secretion of insulin, several of the aminosterols from shark liver were administered to fasting mice. Male CD-1 mice were assigned to one of four treatment groups. Whole blood glucose was tested using glucometer (Lifescan Glucometer II and One Touch test strips). Statistical analysis was via one-way analysis of variance (ANOVA) followed by subsequent Bonferonni's t-test.

[12] = test system: human coronary artery smooth muscle; test: Proliferation of human coronary artery smooth muscle in vitro; assay type: cell-based
From the text: Aminosterols of the invention may also have utility in inhibiting the growth factor mediated proliferation of smooth muscle within the artery. Following coronary angioplasty, reocclusion commonly occurs, secondary to reparative proliferation of the vascular smooth muscle within the wall of the surgically manipulated blood vessel. This process generally takes place over the course of 7-10 days. To evaluate whether an agent could prevent the growth factor mediated proliferation of smooth muscle within the artery, compound 1436 was evaluated in vitro for its effect on the proliferation of human coronary artery smooth muscle. Results for compound 1436 are shown in FIG. 13, and those for squalamine are shown in FIG. 14, with FIG. 15 being a composite logarithmic plot.

[13] = Effect on growth and weight gain of C57B mice; assay type: in vivo, mouse
Experimental: Animals were dosed QTD (i.p.) starting on Day 1. […] Animals receiving 5 mg/kg QTD experienced about a 50% reduction in growth, compared to untreated controls, while animals receiving 1 mg/kg QTD were affected by about 10%. […] They appeared very much like hypophysectamized animals might appear.

[14] = Effect on arterial resistance in the rat after i.v. administration; assay type: in vivo
Experimental: A 200-g rat was catheterized in the right carotid artery, and the compound was introduced over a ten-second period to a total dosage of 5 mg/kg. Within 30 seconds, the mean arterial pressure had fallen from about 100 mm Hg to about 70 mm Hg, with a marked reduction in pulse pressure from about 40 mm to about 10 mm. […] If cardiac output was basically unaffected, reduction in blood pressure would have resulted principally from a reduction in system resistance.
At that time, 40 μg of noradrenaline was introduced.

[15] = test system: heart of a juvenile Xenopus laevis frog; test: Persistence of beating of isolated frog heart (ischemia); conditions: 10 μg/ml, adrenaline 50 μg/ml, room temperature; about one hour without compound
Experimental: To determine if compound 1436 has such utility, the following experiment was performed. The heart of a juvenile Xenopus laevis frog was dissected from the living animal. The heart was placed into a Petri dish containing Krebs-Ringer buffer with adrenaline 50 μg/ml, and examined with the naked eye. At room temperature, the heart continued beating in a coordinated fashion (atrial beat followed by ventricular beat) for about one hour. In the presence of 10 μg/ml of compound 1436, spontaneous beating persisted up to 24 hours.

[16] = test system: L1210 lymphoblastic leukemia; test: Survival of mice bearing L1210 leukemia
Chemical stability = assay type: physicochemical
B16 melanoma [17] = test: Suppression of growth of B16 melanoma in C57B mice; assay type: in vivo, mouse; conditions: subcutaneous; FIG. 6
Experimental: The growth of B16 melanoma in C57B mice is dependent upon neovascularization.
Using the growth of B16 melanoma cells in C57B mice, a recognized model for the evaluation of inhibitors of angiogenesis on the growth of cancers, the effects of subcutaneous, intraperitoneal and oral administration of squalamine were evaluated.

NHE = test: Comparison of compound 319 with squalamine
From the text: Moreover, other aminosterols have shown anti-angiogenic activity. Compounds were subjected to a various assays, including the chick embryo capillary regression assay, the tadpole assay, the assay for inhibition of endothelial cord formation, and the assay for direct inhibition of NHE, as described above, to determine their utilities. As evident from the above data, correlation among the results from the chick, tadpole and in vitro inhibition of endothelial cell cord formation assays is excellent.
Through the application of these assays, compound 319 emerged as an attractive alternative to squalamine. […] Further properties of compound 319 are discussed below.

[18] = Hematological profile of L1210-inoculated mice
From the text: C57B mice were inoculated with L1210 lymphoblastic leukemia cells at an inoculum that causes leukemia in 100% of animals.

T1 sequence (P26432 30-832): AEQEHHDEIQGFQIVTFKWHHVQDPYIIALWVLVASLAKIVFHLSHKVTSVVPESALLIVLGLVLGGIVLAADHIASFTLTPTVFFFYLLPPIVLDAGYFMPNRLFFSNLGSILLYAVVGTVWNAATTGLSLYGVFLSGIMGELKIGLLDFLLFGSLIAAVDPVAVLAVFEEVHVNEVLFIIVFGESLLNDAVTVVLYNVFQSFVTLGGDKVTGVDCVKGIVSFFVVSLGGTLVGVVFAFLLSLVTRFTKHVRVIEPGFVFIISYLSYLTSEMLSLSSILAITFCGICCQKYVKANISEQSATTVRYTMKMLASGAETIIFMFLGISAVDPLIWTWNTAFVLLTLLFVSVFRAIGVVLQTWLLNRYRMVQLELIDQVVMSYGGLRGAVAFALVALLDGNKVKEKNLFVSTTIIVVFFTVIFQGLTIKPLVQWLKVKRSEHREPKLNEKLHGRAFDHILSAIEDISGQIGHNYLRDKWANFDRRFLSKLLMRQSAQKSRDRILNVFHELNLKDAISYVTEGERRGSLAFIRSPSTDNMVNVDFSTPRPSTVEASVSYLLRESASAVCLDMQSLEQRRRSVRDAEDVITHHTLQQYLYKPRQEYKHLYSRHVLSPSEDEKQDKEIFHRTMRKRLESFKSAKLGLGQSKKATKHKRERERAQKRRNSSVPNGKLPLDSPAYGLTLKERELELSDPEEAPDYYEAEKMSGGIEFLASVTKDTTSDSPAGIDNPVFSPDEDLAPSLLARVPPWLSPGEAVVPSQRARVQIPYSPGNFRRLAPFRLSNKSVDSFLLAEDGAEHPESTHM

CC(C)CCC[C@@H](C)[C@H]1CC[C@H]2[C@@H]3CC[C@H]4C[C@@H](NCCCNCCCCNCCCN)CC[C@]4(C)[C@H]3CC[C@]12C [Compound 353]
activity on vitelline capillaries (vitelline capillaries): no effect on the chick embryo capillary bed | pharmacological response in tadpole (words) [1]: effects like those produced by compound 1436 | time course of effect on growth of melanoma (human melanoma): most pronounced over 48 hours, with less of an effect noted within the first 12 hours of incubation

CC(C)[C@@H](CC[C@@H](C)[C@H]1CC[C@H]2[C@@H]3[C@H](O)C[C@H]4C[C@@H](NCCCNCCCCNCCCN)CC[C@]4(C)[C@H]3CC[C@]12C)OS(=O)(=O)O [Compound 1436]
inhibition of rabbit NHE3 (rabbit NHE3): found to inhibit rabbit NHE3 | activity on vitelline capillaries (vitelline capillaries): causes vitelline capillary regression with about the same potency as squalamine | tissues or functions not affected in tadpole [1]: No effects are observed on epithelial cell integrity, vascular flow, erythrocyte volume, tissue integrity, muscle fiber striation, or GI tract activity | pharmacological response in tadpole (words) [1]: Gradual reduction in overall activity. Heart beat remained strong, suggesting nervous system depression. Melanocytes over head and tail began to swell, first exhibiting visibly distinct nuclei, followed by rupture into fragments | pharmacological response in tadpole (words) ([1]; listed as compound 1436): common vascular occlusive effect; also recorded: dramatic disruption of melanocytes over its head, trunk, and tail, along with depression of its nervous system | inhibition of blast transformation [2]: inhibited blast transformation most potently | inhibition in vitro [3]: INHIBITED | inhibition in vitro [4]: INHIBITED | inhibition in vitro [5]: INHIBITED | inhibition in vitro (Human melanoma WM 1617): INHIBITED | inhibition in vitro [6]: INHIBITED | inhibition in vitro (Lewis lung carcinoma): INHIBITED | inhibition in vitro (Murine B16 melanoma): INHIBITED | inhibition in vitro (Murine L1210 leukemia): INHIBITED | inhibition in vitro [7]: INHIBITED | inhibition in vitro [8]: INHIBITED | inhibition in vitro [9]: INHIBITED | effect compared with combination (B16 melanoma [10]; compound 1436 alone in a tolerable schedule): Neither administration of squalamine at 15 mg/kg/day nor compound 1436 alone in a tolerable schedule could achieve this effect | impact on tumor volume (B16 melanoma [10]; compound 1436 alone, 10 mg/kg/every 3 days, FIG. 12): no significant impact on tumor volume | blood glucose effect [11]: caused hyperglycemia in mice | suppression of growth in vitro ([12]; FIG. 15): suppress in vitro the growth of human coronary artery smooth muscle | viability at quiescent concentration ([12]; about 11 μg/ml): without loss of viability | reduction in growth ([13]; 5 mg/kg QTD i.p., compared to untreated controls): ~50% | reduction in growth ([13]; 10 mg/kg QTD i.p.): almost completely inhibited | apparent health of treated animals ([13]; i.p.): all were active, normally proportioned, not-cachectic, and in excellent apparent clinical health | reversibility ([14]; 40 μg noradrenaline at 30 minutes): readily reversible | pulse pressure after dose ([14]; 5 mg/kg i.v., within 30 seconds, from about 40 mm): about 10 mm | mean arterial pressure after dose ([14]; 5 mg/kg i.v., within 30 seconds, from about 100 mm Hg): about 70 mm Hg | persistence of pressure effect ([14]; followed for 30 minutes): without significant change | persistence of spontaneous beating [15]: up to 24 hours | survival ([16]; highest dose, 10 mg/kg every 3 days i.p., FIG. 11): significant prolongation of life | toxicity in leukemic mice ([16]; mouse, in vivo): without unfavorable toxicity

CC(CCC(=O)C(C)(C)OS(=O)(=O)O)[C@H]1CCC2C3C(CC[C@@]21C)[C@@]1(C)CC[C@H](NCCCNCCCCN)C[C@@H]1C[C@H]3O (some centres unmarked) [FX1A]
stability in water (Chemical stability): undergo conversion to another molecule (FX 1B) rapidly in water

C[C@H](CCC(=O)O)[C@H]1CC[C@H]2[C@@H]3CC[C@H]4C[C@@H](NCCCNCCCCN)CC[C@]4(C)[C@H]3CC[C@]12C [Compound 319]
activity on vitelline capillaries (vitelline capillaries): especially active | pharmacological response in tadpole (words) [1]: common vascular occlusive effect | control of B16 melanoma (B16 melanoma [17]): control of B16 in C57B mice to an extent almost comparable to squalamine | potency as an NHE inhibitor compared with squalamine (NHE): superior to squalamine

N.N.[Cl][Pt][Cl] [Cisplatin]
hematological profile [18]: profound anemia by day 28
